For 18 compounds, IC50, inhibition and Ki results are on record in ChEMBL document CHEMBL1127224, “Peptidomimetic inhibitors of human immunodeficiency virus protease (HIV-PR): Design, enzyme binding and selectivity, antiviral efficacy, and cell permeability properties” (Bioorg Med Chem Lett, 1993).

Bounds are passed on as bounds.

Test [1] deals with CV-1. As to the kind of experiment: Antiviral efficacy measured by a hybrid HIV-l/vaccinia virus infected monkey cell line (HIV- l/vVK-1 infected CV- 1) which produces HIV-1 gag-pol derived polyproteins. The test is classed as functional, cell-based, Human immunodeficiency virus 1. To be noted: Chlorocebus aethiops.
In test [2] the test system is CV-1. As to the kind of experiment: Antiviral efficacy measured by a hybrid HIV-l/vaccinia virus infected monkey cell line (HIV- l/vVK-1 infected CV- 1) which produces HIV-1 gag-pol derived polyproteins at 10 uM concentration. The test is classed as functional, Human immunodeficiency virus 1. To be noted: Chlorocebus aethiops.
In test [3] the target is Human immunodeficiency virus type 1 protease (Human immunodeficiency virus 1, UniProt Q72874). As to the kind of experiment: Evaluated for inhibitory activity against HIV-1 protease.
The target in the next test is T1, Cathepsin E (Homo sapiens, UniProt P14091).
T1 sequence (P14091 whole entry): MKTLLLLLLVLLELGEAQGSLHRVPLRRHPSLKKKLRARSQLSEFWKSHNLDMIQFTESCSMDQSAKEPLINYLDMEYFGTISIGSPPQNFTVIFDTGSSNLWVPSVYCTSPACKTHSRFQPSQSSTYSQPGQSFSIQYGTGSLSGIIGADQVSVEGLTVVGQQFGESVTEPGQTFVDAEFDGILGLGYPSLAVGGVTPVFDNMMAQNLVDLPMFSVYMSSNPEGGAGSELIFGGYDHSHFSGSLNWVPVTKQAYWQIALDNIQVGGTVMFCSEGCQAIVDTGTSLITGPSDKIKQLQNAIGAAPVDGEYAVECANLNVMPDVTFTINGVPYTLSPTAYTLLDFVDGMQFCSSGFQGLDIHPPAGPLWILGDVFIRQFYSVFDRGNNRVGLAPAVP
As to the kind of experiment: Compound was evaluated for aspartyl protease inhibition selectivity relative to Cathepsin E.

Another test concerns the target Cathepsin D (Homo sapiens, UniProt P07339). The test is described as follows: Compound was evaluated for aspartyl protease inhibition selectivity relative to Cathepsin D.
Another test addresses Pepsin A (Sus scrofa, UniProt P00791). The test is described as follows: Compound was evaluated for aspartyl protease inhibition selectivity relative to pepsin. Further details: species or system Homo sapiens.
The target of a further test is T2, Renin (Homo sapiens, UniProt P00797).
T2 sequence (P00797 whole entry): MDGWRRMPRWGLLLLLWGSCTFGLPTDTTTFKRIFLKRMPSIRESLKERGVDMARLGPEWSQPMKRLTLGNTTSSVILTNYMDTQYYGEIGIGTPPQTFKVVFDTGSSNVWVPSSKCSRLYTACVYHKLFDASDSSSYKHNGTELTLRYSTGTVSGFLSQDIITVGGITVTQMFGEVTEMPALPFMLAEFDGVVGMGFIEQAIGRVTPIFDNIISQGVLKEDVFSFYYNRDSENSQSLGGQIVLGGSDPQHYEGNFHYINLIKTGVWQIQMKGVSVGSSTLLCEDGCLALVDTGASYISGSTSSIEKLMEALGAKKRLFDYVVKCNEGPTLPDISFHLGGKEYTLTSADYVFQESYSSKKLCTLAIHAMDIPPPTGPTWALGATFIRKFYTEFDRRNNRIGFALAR
The test is described as follows: Compound was evaluated for aspartyl protease inhibition selectivity relative to renin.

Pepsin A, sequence (P00791 whole entry): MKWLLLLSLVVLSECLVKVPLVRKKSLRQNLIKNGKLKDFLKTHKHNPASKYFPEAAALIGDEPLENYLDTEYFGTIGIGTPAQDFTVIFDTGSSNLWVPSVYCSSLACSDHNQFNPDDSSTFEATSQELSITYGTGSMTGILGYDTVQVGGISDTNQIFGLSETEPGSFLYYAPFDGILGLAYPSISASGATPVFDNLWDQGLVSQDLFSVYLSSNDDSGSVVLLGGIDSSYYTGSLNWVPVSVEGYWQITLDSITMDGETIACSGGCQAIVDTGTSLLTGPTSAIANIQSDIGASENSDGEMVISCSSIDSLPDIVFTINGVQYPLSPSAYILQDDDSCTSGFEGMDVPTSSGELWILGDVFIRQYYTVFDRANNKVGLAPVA
Cathepsin D, sequence (P07339 65-162 limits assumed): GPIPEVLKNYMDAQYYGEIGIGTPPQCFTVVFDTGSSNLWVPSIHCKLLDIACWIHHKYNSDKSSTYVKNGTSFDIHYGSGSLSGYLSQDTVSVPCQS
Cathepsin D, sequence (P07339 169-412 limits assumed): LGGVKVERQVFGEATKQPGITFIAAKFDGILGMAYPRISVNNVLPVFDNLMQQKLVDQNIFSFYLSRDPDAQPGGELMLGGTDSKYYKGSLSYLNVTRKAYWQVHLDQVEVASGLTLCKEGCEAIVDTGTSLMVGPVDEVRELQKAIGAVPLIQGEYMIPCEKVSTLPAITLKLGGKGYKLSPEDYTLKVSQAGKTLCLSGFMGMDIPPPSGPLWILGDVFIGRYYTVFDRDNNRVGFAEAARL

In the test on CV-1 [1], `CCC(C)[C@H](NC(=O)[C@@H](C[C@H](O)[C@H](CC1CCCCC1)NC(=O)COc1ccccc1)C(C)C)C(=O)NCc1ccccn1` (some centres undefined) showed a concentration for half-maximal inhibition (IC50) of 3000 nM. In the test on CV-1 [2], this compound displayed an inhibition at 10 µM of 90%. The affinity in test [3], expressed as Ki, was 61 nM.

In turn, `CCC(C)[C@H](NC(=O)[C@@H](C[C@H](O)[C@H](CC1CCCCC1)NC(=O)[C@@H](NC(=O)COc1cccc2ccccc12)C(C)C)C(C)C)C(=O)NCc1ccccn1` (some centres undefined) yielded a 50% inhibitory concentration (IC50) with CV-1 [1] of 300 nM. The compound further registered an inhibition at 10 µM in the test with CV-1 [2] of 93%. Moreover, the inhibition constant Ki in test [3] is 61 nM.

In the test on CV-1 [2], `CCC(C)[C@H](NC(=O)[C@@H](C[C@H](O)[C@H](CC1CCCCC1)NC(=O)[C@H](CC(N)=O)NC(=O)c1ccc2ccccc2n1)C(C)C)C(=O)O` (some centres undefined) showed an inhibition at 10 µM of 0%.

Compound `CCC(C)[C@H](NC(=O)[C@@H](C[C@H](O)[C@H](CC1CCCCC1)NC(=O)[C@H](Cc1cn(C)cn1)NC(=O)COc1cccc2ccccc12)C(C)C)C(=O)NCc1ccccn1` (some centres undefined) had an IC50 with CV-1 [1] of 500 nM. In the test with CV-1 [2], this compound registered an inhibition at 10 µM of 85%. This compound gave an inhibitory constant (Ki) in test [3] of 30 nM.

Turning to `CCCCCC(=O)N[C@@H](CC1CCCCC1)[C@@H](O)C[C@H](C(=O)N[C@H](C(=O)NCc1ccccn1)C(C)CC)C(C)C` (some centres undefined), the 50% inhibitory concentration (IC50) with CV-1 [1] is 3000 nM. The compound further showed an inhibition at 10 µM in the test with CV-1 [2] of 67%. The compound further returned a Ki in test [3] of 47 nM.

`CC[C@H](C)[C@H](NC(=O)[C@@H](C[C@H](O)[C@H](CC1CCCCC1)NC(C)=O)C(C)C)C(=O)NCc1cccc[n+]1[O-]` came in with an inhibition at 10 µM in the test on CV-1 [2] of 20%. In test [3], this compound returned an inhibition constant Ki of 16 nM.

`CC[C@@H](C)[C@@H](NC(=O)[C@@H](C[C@H](O)[C@H](CC1CCCCC1)NC(C)=O)C(C)C)C(=O)NCc1ccccn1` returned an inhibition at 10 µM with CV-1 [2] of 22%. In addition, the inhibitory constant (Ki) in test [3] was > 1000 nM.

Compound `CCC(C)[C@H](NC(=O)[C@@H](C[C@H](O)[C@H](CC1CCCCC1)NC(=O)OC(C)(C)C)C(C)C)C(=O)NCc1ccccn1` (some centres undefined) showed an IC50 in the test with CV-1 [1] of 300 nM. The same compound gave an inhibition at 10 µM in the test on CV-1 [2] of 100%. Further, the inhibition constant Ki on Cathepsin E worked out at 90 nM; on Cathepsin D it was 100 nM; on Pepsin A it was 330 nM; on Renin, 1200 nM; in test [3], 8 nM.

In the case of `CCC(C)[C@H](NC(=O)[C@@H](C[C@H](O)[C@H](CC1CCCCC1)NC(=O)[C@H](Cc1cnc[nH]1)NC(=O)OC(C)(C)C)C(C)C)C(=O)NCc1ccccn1` (some centres undefined), the IC50 with CV-1 [1] amounted to 10000 nM. The compound further yielded an inhibition at 10 µM in the test with CV-1 [2] of 53%. Also, in test [3], the affinity corresponds to a Ki of 10 nM.

Take `CCC(C)[C@H](NC(=O)[C@@H](C[C@H](O)[C@H](CC1CCCCC1)NC(=O)CC(C)(C)C)C(C)C)C(=O)NCc1ccccn1` (some centres undefined): the IC50 in the test on CV-1 [1] was found to be 3000 nM. This compound had an inhibition at 10 µM in the test on CV-1 [2] of 75%. For the same compound, the inhibition constant (Ki) in test [3] was found to be 75 nM.

`CC[C@H](C)[C@H](NC(=O)[C@H](C(C)C)[C@@H](O)[C@H](O)[C@H](CC1CCCCC1)NC(=O)[C@H](Cc1c[nH]cn1)NC(=O)COc1cccc2ccccc12)C(=O)NCc1ccccn1` yielded an IC50 in the test with CV-1 [1] of 200 nM. Besides, the inhibition at 10 µM in the test with CV-1 [2] stood at 100%. The Ki at Cathepsin E was 142 nM; on Cathepsin D it was > 1000 nM; at Pepsin A it was 265 nM; at Renin, 2 nM; in test [3], < 1 nM.

In the test on CV-1 [1], `CC(C)[C@H](C[C@H](O)[C@H](CC1CCCCC1)NC(=O)C(CC(N)=O)NC(=O)c1ccc2ccccc2n1)C(=O)NCC(C)(C)C` (some centres undefined) showed an IC50 of 300 nM. This compound gave an inhibition at 10 µM in the test with CV-1 [2] of 70%. The compound also displayed a Ki in test [3] of 14 nM.

Take `CC[C@H](C)[C@H](NC(=O)[C@@H](C[C@H](O)[C@@H](N)CC1CCCCC1)C(C)C)C(=O)NCc1ccccn1`: in the test with CV-1 [2], the inhibition at 10 µM amounted to 0%. Further, the inhibition constant Ki in test [3] came out at 800 nM.

In the test with CV-1 [1], `CCC(C)[C@H](NC(=O)[C@@H](C[C@H](O)[C@H](CC1CCCCC1)NC(=O)[C@H](CC(N)=O)NC(=O)c1ccc2ccccc2n1)C(C)C)C(=O)NCc1ccccn1` (some centres undefined) came in with an IC50 of 300 nM. This compound also registered an inhibition at 10 µM with CV-1 [2] of 97%. Besides, the Ki stood at 3 nM at Cathepsin E; 2 nM at Cathepsin D; 12 nM on Pepsin A; 212 nM on Renin; 9 nM in test [3].

With `CCC(C)[C@H](NC(=O)[C@@H](C[C@H](O)[C@H](CC1CCCCC1)NC(=O)[C@H](CC(N)=O)NC(=O)COc1cccc2ccccc12)C(C)C)C(=O)NCc1ccccn1` (some centres undefined), in the test with CV-1 [1], half-maximal inhibition (IC50) required 300 nM. Further, in the test with CV-1 [2], the inhibition at 10 µM amounted to 93%. In addition, in test [3], the Ki is 4 nM.

The compound `CC[C@H](C)[C@H](NC(=O)[C@@H](C[C@H](O)[C@H](CC1CCCCC1)NC(C)=O)C(C)C)C(=O)NCc1ccccn1` had an inhibition at 10 µM in the test with CV-1 [2] of 50%. In test [3], this compound returned a Ki of 8 nM.

With `CCC(C)[C@H](NC(=O)[C@@H](C[C@H](O)[C@H](CC1CCCCC1)NC(=O)[C@H](Cc1c[nH]cn1)NC(=O)COc1cccc2ccccc12)C(C)C)C(=O)NCc1ccccn1` (some centres undefined), 300 nM corresponded to half-maximal inhibition with CV-1 [1] (IC50). This compound came in with an inhibition at 10 µM in the test on CV-1 [2] of 100%. For the same compound, the inhibition constant Ki on Cathepsin E amounted to 50 nM; on Cathepsin D, 200 nM; at Pepsin A it was 290 nM; on Renin, 2 nM; in test [3], 5 nM.

`CCC(C)[C@H](NC(=O)[C@@H](C[C@H](O)[C@H](CC1CCCCC1)NC(=O)c1ccccn1)C(C)C)C(=O)NCc1ccccn1` (some centres undefined): inhibition in the test with CV-1 [1] was half-maximal at 300 nM (IC50). The compound further displayed an inhibition at 10 µM in the test on CV-1 [2] of 100%. Further, the inhibition constant (Ki) in test [3] worked out at 8 nM.
